Reference: patent publication US7919486B2, “Use of gallium(III) complexes for the treatment of melanomas” (Niiki Pharma Inc., priority 2007, dated 2011)

Key:
SK-MEL-28 = experiment: cytotoxic activity in cell culture on melanoma cell line SK-MEL-28; type: cell-based; settings: SK-MEL-28 melanoma cell line obtained from human tumors
Protocol: (§1) The compound of tris(hydroxyquinolinolato)gallium(III) was analyzed with respect to its cytotoxic activity in the cell culture on the melanoma cell lines obtained from human tumors.

SK-MEL-5 = experiment: cytotoxic activity in cell culture on melanoma cell line SK-MEL-5; type: cell-based; settings: SK-MEL-5 melanoma cell line obtained from human tumors
Protocol: as §1

With c1cnc2c([O][Ga]([O]c3cccc4cccnc34)[O]c3cccc4cccnc34)cccc2c1 [tris(hydroxyquinolinolato)gallium(III)] the IC50 (SK-MEL-28) was 35 µM and the IC50 (SK-MEL-5) was 0.76 µM.
